Test results: patent US8765695B2, “Use of ginsenoside RG1, its metabolites ginsenoside RH1 and/or PPT” (priority 2007, dated 2014)
Marks after values point to notes of the source that are not given here.

What was measured:
[1] = system: male mice; test: Test of sexual ethology: bestriding time and mating frequency of male mice with estral female mice; assay type: in vivo, Kunming mice
Description: Kunming male mice (age 10 weeks, weight body 32-36 g), Kunming female mice (age 10 weeks, weight body 30-34 g), as purchased from Laboratory Animal Center of Chinese Academy of Medical Sciences (with the number of certificate SCXK (Jing) 2005-0004), were placed in a clean grade animal house alternately in light and in darkness (12 h:12 h), while taking water and food freely. The test started after the mice had adapted to the environment in the animal house for 5 days. During the period of adapting to the environment, male mice and female mice were isolated from each other.
In order to correctly reflect the change of male mice in sexual function, we prepared estral female mice by ectomizing their ovaries and inducing them by application of external hormone. After anesthetized with chloral hydrate, female mice were subjected to the steps of ectomizing bilateral ovaries by dorsal approach, ligating uterine tube residue end, and suturing skin, followed by recuperating for one week. The induction by application of hormone was conducted by reference to the literature (Masayoshi Nomura, et al, Physiology & Behavior 91 (2007) 223-228), comprising the steps of subcutaneously injecting estradiol benzoate (30 μg per mouse, is) at 48 h prior to use, and subcutaneously injecting progesterone (500 μg per mouse, is) at 4 h prior to use, to thereby obtain estral female mice.
Estral female mice were put in a ratio of 2:1 to male mice inside a mating box in which male mice were placed. They were trained for consecutive 5 days, 12 min each day. When the mating reaction of male mice became stable, the mice were grouped with the consideration that the bestriding time in each group of mice was substantially the same, while discarding the mice that had relatively weak reaction and no reaction.
In darkness, ethological test was carried out in the rearing cage of male mice. Estral female mice and male mice were kept in a ratio of 2:1 inside the same box for 12 min, during which period the bestriding time and mating frequency of the male mice were observed.
All of the values were expressed by using mean value and standard error (M±SEM), the analytic method used was one-way analysis of variance (ANOVA), and the statistic results were expressed by double star method, i.e., *<0.05, **<0.01.

[2] = system: testosterone in serum; test: Content of testosterone in serum of male mice by radioimmune assay after 20 days of oral administration; assay type: in vivo
Description: After oral administration of ginsenoside Rg1 for 20 days, the content of testosterone in serum of male mice was tested by radioimmune assay.

[3] = system: corpus cavernosum; test: NO release and cGMP content in corpus cavernosum of Newland white rabbit; assay type: in vivo
Description: 1.2.1 Influence of Ginsenoside Rg1 on No Release and cGMP Content in Corpus Cavernosum of Newland White Rabbit, as Shown in Table 4
Ginsenoside Rg1 (10 mg/kg) could markedly increase cGMP content in corpus cavernosum as compared with the control group. *P<0.05 vs the control group.

[4] = biological target: PDE5 (Homo sapiens, UniProt O76074); test: Inhibition effect on PDE5 (cGMP degradation, radioimmune autograph technique); assay type: biochemical
[5] = system: healthy men aged 30-50; test: Improving sexual function of men, study in volunteers; assay type: in vivo, human; conditions: 100-200 mg/d
From the text: The effect of ginsenoside Rg1 on improving sexual function of men had been studied in a few of volunteers (healthy men aged 30-50).

[6] = system: sperms in tail of epididymis; test: Gossypol aspermatogenesis model: quality of sperms from tail of epididymis by CASA; assay type: in vivo,  male mice; conditions: 14th day
[7] = system: NO in testis tissue; test: NO content in testis tissue of mice, gossypol model (NO kit); assay type: in vivo
From the text: There was no difference between low-dose group and high-dose group. […] The values were expressed as mean value±SD. **P<0.01 vs. model group, n=10.

[8] = system: T, FSH and LH in serum; test: Hormones (T, FSH, LH) content in serum of mice, gossypol model, radioimmune assay; assay type: in vivo
Description: The test was conducted by radioimmune assay, with the use of a kit as purchased from China North Institute of Biological Technology.

[9] = system: sperms of senile mice; test: Quality of sperms in senile mice by CASA; assay type: in vivo, Kunming mice; conditions: senile mice aged 12 months, 5 mg/kg oral once every day, two weeks
Description: In the test, Kunming mice aged 12 months were used. Ginsenoside Rg1 was orally administered at a dose of 5 mg/kg, once every day, for two weeks.
However, the two groups had no difference in terms of the percentage of motility sperms and the percentage of A+B grade. […] The values were expressed as mean value±SD. **P<0.01 vs. the group of senile mice, n=4.

[10] = system: sperms of cold stress mice; test: Quality of sperms in mice in cold stress model by CASA; assay type: in vivo, Kunming mice; conditions: 14 days
Description: In the test, Kunming mice were used to establish a stress model. The mice were placed in an environment of 4° C. for 8 hours every day, each being kept in a single cage, with fasting and without water, for 14 days, to thereby establish a cold stress model. Ginsenoside Rg1 was administered at two different doses, i.e., 5 mg/kg and 10 mg/kg. Every day, the mice orally took the drug 1 hour before exposure in the cold environment.

In the case of `CC(C)=CCC[C@](C)(O[C@@H]1O[C@H](CO)[C@@H](O)[C@H](O)[C@H]1O)[C@H]1CC[C@]2(C)[C@@H]1[C@H](O)C[C@@H]1[C@@]3(C)CC[C@H](O)C(C)(C)[C@@H]3[C@@H](O[C@@H]3O[C@H](CO)[C@@H](O)[C@H](O)[C@H]3O)C[C@]12C` [Rg1, ginsenoside Rg1], the “bestriding time of mice” value ([1]; 5 mg/kg, 1st day) is reported as 3.1 ± 4.3 min, the “mating frequency of mice” value ([1]; 5 mg/kg, 1st day, 12 min observation) is reported as 15.4 ± 6.4 and the “bestriding time of mice” value ([1]; 5 mg/kg, 4th day) is reported as 2.9 ± 3.4 min. For the same compound, the “mating frequency of mice” value ([1]; 5 mg/kg, 4th day) was 18.7 ± 4.2, the “bestriding time of mice” value ([1]; 5 mg/kg, 8th day) was 3.9 ± 3.1 min and the “mating frequency of mice” value ([1]; 5 mg/kg, 8th day) was 25.6 ± 5.2. For the same compound, the “bestriding time of mice” value ([1]; 5 mg/kg, 12th day) was 7.6 ± 4.1 min, the “mating frequency of mice” value ([1]; 5 mg/kg, 12th day) was 32.8 ± 6.6 and the “bestriding time of mice” value ([1]; 5 mg/kg, 14th day) was 6.9 ± 3.5 min. For the same compound, the “mating frequency of mice” value ([1]; 5 mg/kg, 14th day) was 29.3 ± 7.0, the “bestriding time of mice” value ([1]; 5 mg/kg, 16th day) was 8.6 ± 2.8 min and the “mating frequency of mice” value ([1]; 5 mg/kg, 16th day) was 42.1 ± 10.1. The “bestriding time of mice” value ([1]; 5 mg/kg, 18th day) was 9.4 ± 3.7* min, the “mating frequency of mice” value ([1]; 5 mg/kg, 18th day) was 43.7 ± 8.7* and the “bestriding time of mice” value ([1]; 5 mg/kg, 20th day) was 9.5 ± 3.4* min. For the same compound, the “mating frequency of mice” value ([1]; 5 mg/kg, 20th day) was 43.3 ± 7.8*, the “bestriding time of mice” value ([1]; 10 mg/kg, 1st day) was 3.3 ± 2.3 min and the “mating frequency of mice” value ([1]; 10 mg/kg, 1st day, 12 min observation) was 13.8 ± 3.4. For the same compound, the “bestriding time of mice” value ([1]; 10 mg/kg, 4th day) was 3.5 ± 3.1 min, the “mating frequency of mice” value ([1]; 10 mg/kg, 4th day) was 20.1 ± 4.8 and the “bestriding time of mice” value ([1]; 10 mg/kg, 8th day) was 4.2 ± 3.6 min. The “mating frequency of mice” value ([1]; 10 mg/kg, 8th day) was 28.3 ± 5.6, the “bestriding time of mice” value ([1]; 10 mg/kg, 12th day) was 8.6 ± 4.3 min and the “mating frequency of mice” value ([1]; 10 mg/kg, 12th day) was 25.3 ± 7.1. The “bestriding time of mice” value ([1]; 10 mg/kg, 14th day) was 7.9 ± 3.7 min, the “mating frequency of mice” value ([1]; 10 mg/kg, 14th day) was 33.3 ± 6.6 and the “bestriding time of mice” value ([1]; 10 mg/kg, 16th day) was 9.2 ± 3.6 min. For the same compound, the “mating frequency of mice” value ([1]; 10 mg/kg, 16th day) was 37.9 ± 12.7, the “bestriding time of mice” value ([1]; 10 mg/kg, 18th day) was 9.3 ± 3.6* min and the “mating frequency of mice” value ([1]; 10 mg/kg, 18th day) was 45.1 ± 10.8*. The “bestriding time of mice” value ([1]; 10 mg/kg, 20th day) was 9.8 ± 3.8* min, the “mating frequency of mice” value ([1]; 10 mg/kg, 20th day) was 44.2 ± 9.4* and the “content of testosterone in serum of mice” value ([2]; 2.5 mg/kg oral) was 5.11 pmol/mL. The “content of testosterone in serum of mice” value ([2]; 5.0 mg/kg oral) was 5.18 pmol/mL, the “content of testosterone in serum of mice” value ([2]; 10.0 mg/kg oral) was 7.90* pmol · ml^−1 and the “NO release in corpus cavernosum” value ([3]; 2.5 mg/kg) was 27.97 ± 6.90 μmol/g protein. The “cGMP content in corpus cavernosum” value ([3]; 2.5 mg/kg) was 87.40 ± 42.86 pmol/g, the “NO release in corpus cavernosum” value ([3]; 5.0 mg/kg) was 28.43 ± 6.04* μmol/g protein and the “cGMP content in corpus cavernosum” value ([3]; 5.0 mg/kg) was 98.10 ± 48.40 pmol/g. The “NO release in corpus cavernosum” value ([3]; 10.0 mg/kg) was 30.35 ± 6.70* μmol/g protein, the “cGMP content in corpus cavernosum” value ([3]; 10.0 mg/kg) was 102.73 ± 50.80* pmol/g and the IC50 [4] was 4.34 nM. The inhibition at 0.0025 µM ([4]; inhibitor 2.5 nmol/l, read-out: Inhibition rate on PDE5) was 46.7%, the inhibition at 0.005 µM ([4]; inhibitor 5.0 nmol/l, read-out: Inhibition rate on PDE5) was 40% and the inhibition at 0.01 µM ([4]; inhibitor 10.0 nmol/l, read-out: Inhibition rate on PDE5) was 63.4%. The inhibition at 0.04 µM ([4]; inhibitor 40.0 nmol/l, read-out: Inhibition rate on PDE5) was 100%, the inhibition at 0.08 µM ([4]; inhibitor 80.0 nmol/l, read-out: Inhibition rate on PDE5) was 100% and the “side effects in volunteers” value [5] was “except for dry mouth, no significant side effects occurred”. For the same compound, the Number of sperms ([6]; 5 mg/kg every day + gossypol 50 mg/kg every other day) was 170 ± 36**^# 10^6 · ml−1, the “Motility of sperms (A + B)” value ([6]; 5 mg/kg every day + gossypol) was 28 ± 6% and the “Viability rate of sperms” value ([6]; 5 mg/kg every day + gossypol) was 50 ± 10 %. The Number of sperms ([6]; 10 mg/kg every day + gossypol 50 mg/kg every other day) was 225 ± 36**^## 10^6 · ml−1, the “Motility of sperms (A + B)” value ([6]; 10 mg/kg every day + gossypol) was 45 ± 8 % and the “Viability rate of sperms” value ([6]; 10 mg/kg every day + gossypol) was 61 ± 9 %. The “NO concentration in testis tissue” value ([7]; 5 mg/kg) was 16 ± 9 μmol/g protein, the “NO concentration in testis tissue” value ([7]; 10 mg/kg) was 10 ± 7** μmol/g protein and the FSH in serum ([8]; 5 mg/kg) was 5.7 ± 2.0 ng/mL. It also gave an LH in serum ([8]; 5 mg/kg) of 2.9 ± 1.2 ng/mL, a T in serum ([8]; 5 mg/kg) of 0.8 ± 0.3 ng/mL and an FSH in serum ([8]; 10 mg/kg) of 4.3 ± 1.9 ng/mL. For the same compound, the LH in serum ([8]; 10 mg/kg) was 2.1 ± 0.8 ng/mL, the T in serum ([8]; 10 mg/kg) was 1.0 ± 0.5 ng/mL and the “A + B grade” value [9] was 18.27 ± 8.37%. For the same compound, the Motility sperms [9] was 40 ± 6.56%, the Sperm count [9] was 133.23 ± 15.99** ×10^6 and the “A + B grade” value ([10]; 5 mg/kg oral) was 39.26 ± 8.96 %. For the same compound, the Motility sperm ([10]; 5 mg/kg oral) was 54.47 ± 8.14 %, the Sperm count ([10]; 5 mg/kg oral) was 438.70 ± 94.19 ×10^6 and the “A + B grade” value ([10]; 10 mg/kg oral) was 32.89 ± 13.42%. For the same compound, the Motility sperm ([10]; 10 mg/kg oral) was 44.97 ± 12.07% and the Sperm count ([10]; 10 mg/kg oral) was 377.17 ± 42.93 ×10^6.
